{
  "source": "patent US6706663B2",
  "about": "“Herbicidal 3-heterocyclic substituted benzisothiazole and benzisoxazole compounds” (Wyeth, priority 2000, dated 2004)",
  "key": {"ORYSAT (Rice, Tebonnet) [1]": {"tested_on": "ORYSAT (Rice, Tebonnet)", "experiment": "Postemergence herbicidal evaluation", "type": "in vivo, Oryza sativa, (L.) Tebonnet", "details": "postemergence", "method_in_brief": "(§1)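 Visual 0–9 injury scores versus control plants, covering stand, vigour, malformation, size, chlorosis and general appearance, taken four to five weeks post-spray and averaged over replicate tests. Plants were sprayed at roughly two weeks old and held on greenhouse benches.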"}, "[2]": {"tested_on": "AMBEL (Ambrosia artemisifolia)", "experiment": "Preemergence herbicidal evaluation", "type": "in vivo, L.", "details": "preemergence, rated 4-5 weeks after treatment", "method_in_brief": "(§2)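 Preemergence soil spray, aq. acetone; greenhouse; visual 0–9 score vs control at 4–5 wk.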"}, "[3]": {"tested_on": "CHEAL (Chenopodium album)", "experiment": "Preemergence herbicidal evaluation", "type": "in vivo, L.", "details": "preemergence, rated 4-5 weeks after treatment", "method_in_brief": "as §2"}, "[4]": {"tested_on": "CASOB (Cassia obtusifolia)", "experiment": "Preemergence herbicidal evaluation", "type": "in vivo, L.", "details": "preemergence, rated 4-5 weeks after treatment", "method_in_brief": "as §2"}, "SETVI (Setaria viridis) [5]": {"tested_on": "SETVI (Setaria viridis)", "experiment": "Postemergence herbicidal evaluation", "type": "in vivo, (L.) Beau", "details": "postemergence", "method_in_brief": "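Seedlings grown about two weeks were sprayed with compound in 50/50 acetone/water containing 0.5% TWEEN 20, at about 0.0040 to 1.000 kg/ha via nozzle at 40 psi. Plants were kept under greenhouse conditions and visually rated on a 0-9 scale versus control four to five weeks after treatment; replicate tests averaged.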"}, "[6]": {"tested_on": "ECHCG (Echinochloa crus-galli)", "experiment": "Preemergence herbicidal evaluation", "type": "in vivo, (L.) Beau", "details": "preemergence, rated 4-5 weeks after treatment", "method_in_brief": "as §2"}, "SETVI (Setaria viridis) [7]": {"tested_on": "SETVI (Setaria viridis)", "experiment": "Preemergence herbicidal evaluation", "type": "in vivo, (L.) Beau", "details": "preemergence, rated 4-5 weeks after treatment", "method_in_brief": "as §2"}, "ORYSAT (Rice, Tebonnet) [8]": {"tested_on": "ORYSAT (Rice, Tebonnet)", "experiment": "Preemergence herbicidal evaluation", "type": "in vivo, Oryza sativa, (L.) Tebonnet", "details": "preemergence, rated 4-5 weeks after treatment"}, "CYPIR (Cyperus iria)": {"tested_on": "CYPIR (Cyperus iria)", "experiment": "Flooded paddy, preemergence weed control", "type": "in vivo", "details": "rated 3-4 weeks after treatment, 0-9 rating scale", "method_in_brief": "(§3)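 Silt loam, sowing depth ≤0.5 cm; permanent flood 1.5–3 cm above soil; greenhouse culture after treatment. Readout: 0-9 visual scale (stand, vigor, malformation, size, chlorosis, appearance) vs control.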"}, "[9]": {"tested_on": "IPOHE (Ipomoea hederacea)", "experiment": "Postemergence herbicidal evaluation", "type": "in vivo, (L.) Jacq.", "details": "postemergence", "method_in_brief": "as §1"}, "[10]": {"tested_on": "TRZAWR (Wheat, Winter, cv Riband)", "experiment": "Postemergence herbicidal evaluation", "type": "in vivo, Triticum aestivum", "details": "postemergence", "method_in_brief": "as §1"}, "GALAP (Galium aparine) [11]": {"tested_on": "GALAP (Galium aparine)", "experiment": "Preemergence herbicidal evaluation", "type": "in vivo", "details": "preemergence, rate 0.1250 kg/ha, rated 4-5 weeks after treatment", "method_in_brief": "as §2"}, "GALAP (Galium aparine) [12]": {"tested_on": "GALAP (Galium aparine)", "experiment": "Postemergence herbicidal evaluation", "type": "in vivo", "details": "postemergence", "method_in_brief": "as §1"}, "[13]": {"tested_on": "SAGPY (Sagittaria pygmaea)", "experiment": "Flooded paddy, preemergence weed control", "type": "in vivo, L.", "details": "rated 3-4 weeks after treatment, 0-9 rating scale", "method_in_brief": "as §3"}, "[14]": {"tested_on": "AMBEL (Ambrosia artemisifolia)", "experiment": "Postemergence herbicidal evaluation", "type": "in vivo, L.", "details": "postemergence", "method_in_brief": "as §1"}, "[15]": {"tested_on": "CHEAL (Chenopodium album)", "experiment": "Postemergence herbicidal evaluation", "type": "in vivo, L.", "details": "postemergence", "method_in_brief": "as §1"}, "[16]": {"tested_on": "CASOB (Cassia obtusifolia)", "experiment": "Postemergence herbicidal evaluation", "type": "in vivo, L.", "details": "postemergence", "method_in_brief": "as §1"}, "[17]": {"tested_on": "ABUTH (Abutilon theophrasti)", "experiment": "Postemergence herbicidal evaluation", "type": "in vivo, Medic.", "details": "postemergence", "method_in_brief": "as §1"}, "[18]": {"tested_on": "MOOVA (Monochoria vaginalis)", "experiment": "Flooded paddy, preemergence weed control", "type": "in vivo, Presl.", "details": "rated 3-4 weeks after treatment, 0-9 rating scale", "method_in_brief": "as §3"}},
  "data": [
    {"smiles": "Cn1c(C(F)(F)F)cc(=O)n(-c2ccc3snc(-c4ccoc4)c3c2)c1=O", "note": "[Compound 83, 3-[3-(3-furyl)-1,2-benzisothiazol-5-yl]-1-methyl-6-(trifluoromethyl)uracil]", "values": [
      {"measurement": "ORYSAT herbicidal rating", "setting": "ORYSAT (Rice, Tebonnet) [1]; rate 0.0320 kg/ha", "value": 1.5},
      {"measurement": "ORYSAT herbicidal rating", "setting": "ORYSAT (Rice, Tebonnet) [1]; rate 0.0620 kg/ha", "value": 3.0},
      {"measurement": "Preemergence herbicidal rating AMBEL", "setting": "[2]; rate 0.0620 kg/ha", "value": 6.0},
      {"measurement": "Preemergence herbicidal rating AMBEL", "setting": "[2]; rate 0.1250 kg/ha", "value": 7.5},
      {"measurement": "Preemergence herbicidal rating AMBEL", "setting": "[2]; rate 0.2500 kg/ha", "value": 9.0},
      {"measurement": "Preemergence herbicidal rating CHEAL", "setting": "[3]; rate 0.0620 kg/ha", "value": 4.0},
      {"measurement": "Preemergence herbicidal rating CHEAL", "setting": "[3]; rate 0.1250 kg/ha", "value": 9.0},
      {"measurement": "Preemergence herbicidal rating CHEAL", "setting": "[3]; rate 0.2500 kg/ha", "value": 9.0},
      {"measurement": "Preemergence herbicidal rating CASOB", "setting": "[4]; rate 0.0620 kg/ha", "value": 0.0},
      {"measurement": "Preemergence herbicidal rating CASOB", "setting": "[4]; rate 0.1250 kg/ha", "value": 0.0},
      {"measurement": "Preemergence herbicidal rating CASOB", "setting": "[4]; rate 0.2500 kg/ha", "value": 1.0},
      {"measurement": "SETVI herbicidal rating", "setting": "SETVI (Setaria viridis) [5]; rate 0.0320 kg/ha", "value": 3.0},
      {"measurement": "SETVI herbicidal rating", "setting": "SETVI (Setaria viridis) [5]; rate 0.0620 kg/ha", "value": 4.0},
      {"measurement": "Preemergence herbicidal rating ECHCG", "setting": "[6]; rate 0.0620 kg/ha", "value": 2.0},
      {"measurement": "Preemergence herbicidal rating ECHCG", "setting": "[6]; rate 0.1250 kg/ha", "value": 6.5},
      {"measurement": "Preemergence herbicidal rating ECHCG", "setting": "[6]; rate 0.2500 kg/ha", "value": 9.0},
      {"measurement": "Preemergence herbicidal rating SETVI", "setting": "SETVI (Setaria viridis) [7]; rate 0.0620 kg/ha", "value": 6.0},
      {"measurement": "Preemergence herbicidal rating SETVI", "setting": "SETVI (Setaria viridis) [7]; rate 0.1250 kg/ha", "value": 9.0},
      {"measurement": "Preemergence herbicidal rating SETVI", "setting": "SETVI (Setaria viridis) [7]; rate 0.2500 kg/ha", "value": 9.0},
      {"measurement": "Preemergence herbicidal rating ORYSAT", "setting": "ORYSAT (Rice, Tebonnet) [8]; rate 0.0620 kg/ha", "value": 0.0},
      {"measurement": "Preemergence herbicidal rating ORYSAT", "setting": "ORYSAT (Rice, Tebonnet) [8]; rate 0.1250 kg/ha", "value": 3.5},
      {"measurement": "Preemergence herbicidal rating ORYSAT", "setting": "ORYSAT (Rice, Tebonnet) [8]; rate 0.2500 kg/ha", "value": 5.5},
      {"measurement": "herbicidal rating, CYPIR", "setting": "CYPIR (Cyperus iria); rate 0.0080 kg/ha", "value": 0.0},
      {"measurement": "herbicidal rating, CYPIR", "setting": "CYPIR (Cyperus iria); rate 0.0320 kg/ha", "value": 0.0},
      {"measurement": "herbicidal rating, CYPIR", "setting": "CYPIR (Cyperus iria); rate 0.1250 kg/ha", "value": 3.0},
      {"measurement": "IPOHE herbicidal rating", "setting": "[9]; rate 0.0320 kg/ha", "value": 2.0},
      {"measurement": "IPOHE herbicidal rating", "setting": "[9]; rate 0.0620 kg/ha", "value": 4.0},
      {"measurement": "TRZAWR herbicidal rating", "setting": "[10]; rate 0.0320 kg/ha", "value": 2.0},
      {"measurement": "TRZAWR herbicidal rating", "setting": "[10]; rate 0.0620 kg/ha", "value": 3.0},
      {"measurement": "Preemergence herbicidal rating GALAP", "setting": "GALAP (Galium aparine) [11]", "value": 4.0},
      {"measurement": "GALAP herbicidal rating", "setting": "GALAP (Galium aparine) [12]; rate 0.0320 kg/ha", "value": 2.0},
      {"measurement": "GALAP herbicidal rating", "setting": "GALAP (Galium aparine) [12]; rate 0.0620 kg/ha", "value": 3.0},
      {"measurement": "herbicidal rating, SAGPY", "setting": "[13]; rate 0.0080 kg/ha", "value": 0.0},
      {"measurement": "herbicidal rating, SAGPY", "setting": "[13]; rate 0.0320 kg/ha", "value": 0.0},
      {"measurement": "herbicidal rating, SAGPY", "setting": "[13]; rate 0.1250 kg/ha", "value": 0.0},
      {"measurement": "AMBEL herbicidal rating", "setting": "[14]; rate 0.0320 kg/ha", "value": 2.0},
      {"measurement": "AMBEL herbicidal rating", "setting": "[14]; rate 0.0620 kg/ha", "value": 6.0},
      {"measurement": "CHEAL herbicidal rating", "setting": "[15]; rate 0.0320 kg/ha", "value": 3.0},
      {"measurement": "CHEAL herbicidal rating", "setting": "[15]; rate 0.0620 kg/ha", "value": 6.0},
      {"measurement": "CASOB herbicidal rating", "setting": "[16]; rate 0.0320 kg/ha", "value": 4.0},
      {"measurement": "CASOB herbicidal rating", "setting": "[16]; rate 0.0620 kg/ha", "value": 6.0},
      {"measurement": "ABUTH herbicidal rating", "setting": "[17]; rate 0.0320 kg/ha", "value": 6.0},
      {"measurement": "ABUTH herbicidal rating", "setting": "[17]; rate 0.0620 kg/ha", "value": 9.0},
      {"measurement": "herbicidal rating, MOOVA", "setting": "[18]; rate 0.0080 kg/ha", "value": 0.0},
      {"measurement": "herbicidal rating, MOOVA", "setting": "[18]; rate 0.0320 kg/ha", "value": 9.0},
      {"measurement": "herbicidal rating, MOOVA", "setting": "[18]; rate 0.1250 kg/ha", "value": 9.0}
    ]}
  ]
}
